Experimental data taken from patent US20230078764A1 (Yumanity Therapeutics, Inc., priority 2019, published 2023).
Like-named read-outs stand apart in the source and are kept apart here.

How the values were obtained:
human SCD1 = target: T1, human SCD1 (Homo sapiens, UniProt O00767); assay: Growth inhibition of yeast strain expressing human SCD1 as sole desaturase (OLE1 deleted), OD600 readout; type: cell-based
T1 construct: expressed in transfected cells; host or cells: yeast strain with OLE1 deleted, plasmid-borne human SCD1 (selected in SD-Ura)
T1 sequence (O00767 1-359): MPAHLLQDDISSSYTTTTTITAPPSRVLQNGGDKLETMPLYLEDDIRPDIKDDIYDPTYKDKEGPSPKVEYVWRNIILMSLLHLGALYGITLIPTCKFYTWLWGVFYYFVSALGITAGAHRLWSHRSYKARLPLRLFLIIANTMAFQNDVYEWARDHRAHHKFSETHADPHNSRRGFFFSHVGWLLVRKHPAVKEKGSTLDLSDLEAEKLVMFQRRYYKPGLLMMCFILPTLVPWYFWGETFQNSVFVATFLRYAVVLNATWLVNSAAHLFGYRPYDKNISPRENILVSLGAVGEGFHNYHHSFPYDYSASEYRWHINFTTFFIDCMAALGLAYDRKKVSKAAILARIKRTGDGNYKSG

human SCD5 = target: T2, human SCD5 (Homo sapiens, UniProt Q86SK9); assay: Growth inhibition of yeast strain expressing human SCD5 as sole desaturase (OLE1 deleted), OD600 readout; type: cell-based
T2 construct: expressed in transfected cells; host or cells: yeast strain with OLE1 deleted, plasmid-borne human SCD5 (selected in SD-Ura)
T2 sequence (Q86SK9 1-330): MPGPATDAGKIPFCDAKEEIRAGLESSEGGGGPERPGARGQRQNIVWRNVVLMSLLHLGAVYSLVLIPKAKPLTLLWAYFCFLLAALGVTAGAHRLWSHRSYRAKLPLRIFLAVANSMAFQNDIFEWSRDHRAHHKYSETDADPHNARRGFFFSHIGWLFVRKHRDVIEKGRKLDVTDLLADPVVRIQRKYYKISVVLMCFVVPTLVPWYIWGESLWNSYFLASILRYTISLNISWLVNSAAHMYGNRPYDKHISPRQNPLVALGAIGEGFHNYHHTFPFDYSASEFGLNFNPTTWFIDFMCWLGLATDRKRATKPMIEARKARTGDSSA

[1] = yeast strain expressing human SCD1 as sole desaturase, growth (OD600) after 40 h at 30° C., read-out: SCD1 IC50
[2] = yeast strain expressing human SCD5 as sole desaturase, growth (OD600) after 40 h at 30° C., read-out: SCD5 IC50

SMILES	IC50 (human SCD1; [1])	IC50 (human SCD5; [2])	IC50 (human SCD5; SCD5 IC50)	IC50 (human SCD1; SCD1 IC50)
CN1N=C(C(=O)Nc2ncc(Cc3cccc(C#N)c3)s2)CCC1=O [Compound 209, N-(5-(3-cyanobenzyl)thiazol-2-yl)-1-methyl-6-oxo-1,4,5,6-tetrahydropyridazine-3-carboxamide]	1690 nM	2450 nM		
CN1N=C(C(=O)Nc2ccc(CC3=CCCCC3)cn2)CCC1=O [Example 34, N-(5-(cyclohexenylmethyl)pyridin-2-yl)-1-methyl-6-oxo-1,4,5,6-tetrahydropyridazine-3-carboxamide]	> 45000 nM	710 nM		
N#Cc1nc(C(=O)Nc2ccc(Cc3cccc(F)c3)cn2)cs1 [Compound 640]	3200 nM	1300 nM		
Cc1cc(C(=O)Nc2ccc(Cc3cccc(F)c3)cn2)no1 [Compound 107, N-(5-(3-fluorobenzyl)pyridin-2-yl)-5-methylisoxazole-3-carboxamide]	> 45000 nM	1060 nM		
CN1N=C(C(=O)Nc2ccc(Cc3cccc(C4CC4)c3)cn2)CCC1=O [Example 23, N-(5-(3-cyclopropylbenzyl)pyridin-2-yl)-1-methyl-6-oxo-1,4,5,6-tetrahydropyridazine-3-carboxamide]	> 45000 nM	2490 nM		
CC(=O)c1ccc(C(=O)Nc2ccc(Cc3cccc(Cl)c3)cn2)nc1 [Compound 502]	> 45000 nM	10 nM		
COc1ccc(Cc2ccc(NC(=O)c3ccc(=O)n(C)c3)nc2)cn1 [Compound 58, N-(5-((6-methoxypyridin-3-yl)methyl)pyridin-2-yl)-1-methyl-6-oxo-1,6-dihydropyridine-3-carboxamide]	> 45000 nM		35600 nM	
CN1N=C(C(=O)Nc2ccc(Cc3cccc(Br)c3)cn2)CCC1=O [Example 27, N-(5-(3-bromobenzyl)pyridin-2-yl)-1-methyl-6-oxo-1,4,5,6-tetrahydropyridazine-3-carboxamide]	> 45000 nM	390 nM		
Cn1cc(C(=O)Nc2ccc(Cc3ccc(F)cc3)cn2)ccc1=O [Compound 53, N-(5-(4-fluorobenzyl)pyridin-2-yl)-1-methyl-6-oxo-1,6-dihydropyridine-3-carboxamide]			10 nM	280 nM
CCn1ccc(C(=O)Nc2ccc(Cc3cc(F)cc(F)c3)cn2)n1 [Compound 97, N-(5-(3,5-difluorobenzyl)pyridin-2-yl)-1-ethyl-1H-pyrazole-3-carboxamide]	1100 nM	20 nM		
N#Cc1ccc(C(=O)Nc2ccc(Cc3cc(F)cc(F)c3)cn2)cn1 [Compound 478]	2100 nM	19 nM		
Cn1cc(C(=O)Nc2ccc(Cc3ccc(F)cc3)cn2)ccc1=O [Compound 248]	200 nM	10 nM		
CNC(=O)c1ccnc(NC(=O)c2ccc(Oc3ccccc3Cl)cn2)c1 [Compound 678]	320 nM	380 nM		
COCc1ccc(C(=O)Nc2ccc(Cc3cccc(Cl)c3)cn2)cn1 [Compound 136, N-(5-(3-chlorobenzyl)pyridin-2-yl)-6-(methoxymethyl)nicotinamide]	1260 nM	490 nM		
CC(C)(C#N)c1ccc(C(=O)Nc2ccc(Cc3cccc(Cl)c3)cn2)cn1 [Compound 491]	25000 nM	6500 nM		
CN1N=C(NC(=O)c2ccc(Cc3cccc(Cl)c3)nn2)CCC1=O [Compound 190, 6-(3-chlorobenzyl)-N-(1-methyl-6-oxo-1,4,5,6-tetrahydropyridazin-3-yl)pyridazine-3-carboxamide]	> 45000 nM	33000 nM		
Cc1cc(C(=O)Nc2ccc(Cc3cc(F)cc(F)c3)cn2)cnc1Cl [Compound 619]	28000 nM	150 nM		
O=C(Nc1ccc(Cc2cccc(F)c2)cn1)c1ccn(C(F)(F)F)n1 [Compound 372]	> 45000 nM	770 nM		
COC(C)(c1cccc(F)c1)c1cnc(NC(=O)C2=NN(C)C(=O)CC2)s1 (stereo not drawn) [Compound 424]	> 45000 nM	> 45000 nM		
CN1N=C(C(=O)Nc2ncc(C(C)(O)c3cccc(F)c3)s2)CCC1=O (stereo not drawn) [Compound 419]	> 45000 nM	> 45000 nM		
O=C(Nc1ccc(Cc2ccc(F)c(F)c2)cn1)c1ccc2nncn2c1 [Compound 147, N-(5-(3,4-difluorobenzyl)pyridin-2-yl)-[1,2,4]triazolo[4,3-a]pyridine-6-carboxamide]	310 nM	40 nM		
C[C@@H](O)c1ccc(C(=O)Nc2ccc(Cc3cccc(Cl)c3)cn2)cn1 [Compound 520]	360 nM	90 nM		
Cn1cc(C(=O)Nc2ccc(Cc3cc(F)cc(F)c3)cn2)ccc1=O [Compound 59, N-(5-(3,5-difluorobenzyl)pyridin-2-yl)-1-methyl-6-oxo-1,6-dihydropyridine-3-carboxamide]			10 nM	310 nM
O=C(Nc1ccc(Cc2cc(F)cc(F)c2)cn1)c1ncc(CO)cn1 [Compound 559]	10 nM	10 nM		

Second part, led by results:

IC50 (human SCD1; [1])	IC50 (human SCD5; [2])	SMILES	IC50 (human SCD5; SCD5 IC50)	IC50 (human SCD1; SCD1 IC50)
25000 nM	> 45000 nM	CCN1N=C(C(=O)Nc2ncc(Cc3cccc(F)c3)s2)CCC1=O [Compound 414]		
2600 nM	320 nM	CC(O)c1ccc(C(=O)Nc2ccc(Cc3ccc(F)c(F)c3)cn2)cn1 (stereo not drawn) [Compound 514]		
1630 nM	870 nM	Cn1nc(C(=O)Nc2nc(C#N)c(Cc3cccc(F)c3)s2)ccc1=O [Compound 233, N-(4-cyano-5-(3-fluorobenzyl)thiazol-2-yl)-1-methyl-6-oxo-1,6-dihydropyridazine-3-carboxamide]		
17600 nM	> 45000 nM	CN1N=C(C(=O)Nc2cnc(Cc3cccc(F)c3)s2)CCC1=O [Compound 388]		
6600 nM	220 nM	N#Cc1ccc(C(=O)Nc2ccc(Cc3ccc(F)c(F)c3)cn2)cn1 [Compound 541]		
> 45000 nM	> 45000 nM	Cn1cc(C(=O)Nc2nnc(Cc3ccc(F)cc3)s2)ccc1=O [Compound 473]		
140 nM	10 nM	Cn1nc(NC(=O)c2ccc(Cc3cc(F)cc(F)c3)cn2)ccc1=O [Compound 310]		
2030 nM	70 nM	Cc1ccc(C(=O)Nc2ccc(Cc3ccc(F)c(F)c3)cn2)nn1 [Compound 241]		
570 nM	10 nM	Cn1cccc(C(=O)Nc2ccc(Cc3cccc(Cl)c3)cn2)c1=O [Compound 330]		
> 45000 nM	35500 nM	Cn1nc(C(=O)Nc2cnc(Cc3cccc(Cl)c3)nc2)ccc1=O [Compound 351]		
2750 nM	340 nM	Cn1cc(C(=O)Nc2ccc(C3CC3c3ccccc3)cn2)ccc1=O (stereo not drawn) [Compound 298]		
> 45000 nM	230 nM	N#Cc1ccc(C(=O)Nc2ccc(Cc3cccc(F)c3)cn2)cc1 [Compound 133, 4-cyano-N-(5-(3-fluorobenzyl)pyridin-2-yl)benzamide]		
10700 nM	810 nM	Cn1nc(C(=O)Nc2ccc(Cc3ccc(F)c(Cl)c3)cn2)cc1O [Compound 323]		
750 nM	40 nM	O=C(Nc1ccc(Cc2cccc(Cl)c2)cn1)c1ccc(=O)n(C2CC2)n1 [Compound 256]		
> 45000 nM	> 45000 nM	Cc1cncc(Cc2ccc(NC(=O)c3ccc(=O)n(C)c3)nc2)c1 [Compound 450]		
> 45000 nM	> 45000 nM	CN1N=C(C(=O)Nc2ccc(Cc3ccc(C#N)c(F)c3)cn2)CCC1=O [Compound 470]		
60 nM	10 nM	Cn1nc(C(=O)Nc2ccc(Cc3cc(F)c(F)c(Cl)c3)cn2)ccc1=O [Compound 528]		
> 45000 nM	> 45000 nM	Cn1cc(C(=O)N[C@H]2CC[C@@H](Cc3cccc(Cl)c3)CC2)ccc1=O [Compound 465]		
170 nM	56 nM	O=C(Nc1ccc(Cc2ccc(F)c(F)c2)cn1)c1ccncc1 [Compound 650]		
2600 nM	5420 nM	Cn1cc(C(=O)Nc2nnc(Cc3ccc(F)c(Cl)c3)s2)ccc1=O [Compound 350]		
6300 nM	1440 nM	CN1N=C(C(=O)Nc2ncc(Cc3ccc(F)cc3F)s2)CCC1=O [Compound 234, N-(5-(2,4-difluorobenzyl)thiazol-2-yl)-1-methyl-6-oxo-1,4,5,6-tetrahydropyridazine-3-carboxamide]		
> 45000 nM	8900 nM	Cn1cc(C(=O)Nc2ccc(N3CC(Oc4cccc(Cl)c4)C3)cn2)ccc1=O [Compound 660]		
5190 nM	10 nM	CCn1cc(NC(=O)c2ccc(Cc3cc(F)cc(Cl)c3)cn2)ccc1=O [Compound 79, 5-(3-Chloro-5-fluorobenzyl)-N-(1-ethyl-6-oxo-1,6-dihydropyridin-3-yl)picolinamide]		
28000 nM	1600 nM	Cn1cc(C(=O)Nc2ccc(COc3ccccc3)cn2)ccc1=O [Compound 600]		
